Test results from article PMC3992512 (British Journal of Cancer, 2014).
Values joined by “and” are separate entries in the source; they are usually repeats but may differ in a detail not shown here. Equal entries are not always repeated. “Also recorded” adds a separate entry of the source. Where two headings read alike, the source gives them in different places.

Legend:
[1] = [14C]rucaparib uptake and retention in SW620 cells; type: in vitro ADME, human; conditions: human, SW620 cells
SW620 cells = assay: [14C]rucaparib uptake and retention in SW620 cells; type: in vitro ADME, human; conditions: for effect of transport inhibitor on rucaparib uptake: ouabain 30 or 100 μM, cytochalasin B 0.1 or 1 μM, dipyridamole 10 or 100 μM, BCH 1 or 2 mM
[2] = molecular target: Poly(ADP-ribose) polymerase-1 (Homo sapiens, UniProt P09874); assay: PARP activity in cancer cell lines after a 30-min pulse of rucaparib; type: cell-based
Sequence of Poly(ADP-ribose) polymerase-1 (Homo sapiens, UniProt P09874) (P09874 whole entry): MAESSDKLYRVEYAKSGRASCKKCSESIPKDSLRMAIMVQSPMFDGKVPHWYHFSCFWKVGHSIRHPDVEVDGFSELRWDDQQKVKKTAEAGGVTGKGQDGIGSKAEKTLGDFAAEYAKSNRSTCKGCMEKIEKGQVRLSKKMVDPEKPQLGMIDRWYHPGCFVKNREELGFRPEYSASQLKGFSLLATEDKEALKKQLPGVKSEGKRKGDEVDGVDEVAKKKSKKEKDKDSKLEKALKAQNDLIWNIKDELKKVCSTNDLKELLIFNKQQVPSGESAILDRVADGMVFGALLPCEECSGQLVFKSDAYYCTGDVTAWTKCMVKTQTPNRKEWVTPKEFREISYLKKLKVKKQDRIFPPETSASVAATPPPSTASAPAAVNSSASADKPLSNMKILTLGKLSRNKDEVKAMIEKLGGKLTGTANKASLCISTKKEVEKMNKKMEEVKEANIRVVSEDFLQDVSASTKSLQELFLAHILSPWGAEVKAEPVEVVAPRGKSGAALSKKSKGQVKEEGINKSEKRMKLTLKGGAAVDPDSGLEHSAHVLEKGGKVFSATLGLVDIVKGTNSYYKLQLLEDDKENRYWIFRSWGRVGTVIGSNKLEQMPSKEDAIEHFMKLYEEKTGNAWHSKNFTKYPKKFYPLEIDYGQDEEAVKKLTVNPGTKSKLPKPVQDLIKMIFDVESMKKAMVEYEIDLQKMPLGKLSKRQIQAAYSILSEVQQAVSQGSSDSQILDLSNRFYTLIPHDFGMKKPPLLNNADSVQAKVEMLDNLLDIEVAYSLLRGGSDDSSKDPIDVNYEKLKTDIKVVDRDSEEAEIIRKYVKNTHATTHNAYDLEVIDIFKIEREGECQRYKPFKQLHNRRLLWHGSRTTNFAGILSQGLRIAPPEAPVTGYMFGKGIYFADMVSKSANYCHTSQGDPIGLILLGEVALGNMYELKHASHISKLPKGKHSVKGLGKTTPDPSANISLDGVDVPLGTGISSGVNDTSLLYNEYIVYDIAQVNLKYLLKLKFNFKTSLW

[3] = Plasma pharmacokinetics and tissue distribution in Capan-1 tumour-bearing mice; type: in vivo
[4] = molecular target: T1, Poly(ADP-ribose) polymerase-1 (Mus musculus, UniProt P11103); assay: in vivo; type: in vivo, mice
T1 sequence (P11103 2-1013): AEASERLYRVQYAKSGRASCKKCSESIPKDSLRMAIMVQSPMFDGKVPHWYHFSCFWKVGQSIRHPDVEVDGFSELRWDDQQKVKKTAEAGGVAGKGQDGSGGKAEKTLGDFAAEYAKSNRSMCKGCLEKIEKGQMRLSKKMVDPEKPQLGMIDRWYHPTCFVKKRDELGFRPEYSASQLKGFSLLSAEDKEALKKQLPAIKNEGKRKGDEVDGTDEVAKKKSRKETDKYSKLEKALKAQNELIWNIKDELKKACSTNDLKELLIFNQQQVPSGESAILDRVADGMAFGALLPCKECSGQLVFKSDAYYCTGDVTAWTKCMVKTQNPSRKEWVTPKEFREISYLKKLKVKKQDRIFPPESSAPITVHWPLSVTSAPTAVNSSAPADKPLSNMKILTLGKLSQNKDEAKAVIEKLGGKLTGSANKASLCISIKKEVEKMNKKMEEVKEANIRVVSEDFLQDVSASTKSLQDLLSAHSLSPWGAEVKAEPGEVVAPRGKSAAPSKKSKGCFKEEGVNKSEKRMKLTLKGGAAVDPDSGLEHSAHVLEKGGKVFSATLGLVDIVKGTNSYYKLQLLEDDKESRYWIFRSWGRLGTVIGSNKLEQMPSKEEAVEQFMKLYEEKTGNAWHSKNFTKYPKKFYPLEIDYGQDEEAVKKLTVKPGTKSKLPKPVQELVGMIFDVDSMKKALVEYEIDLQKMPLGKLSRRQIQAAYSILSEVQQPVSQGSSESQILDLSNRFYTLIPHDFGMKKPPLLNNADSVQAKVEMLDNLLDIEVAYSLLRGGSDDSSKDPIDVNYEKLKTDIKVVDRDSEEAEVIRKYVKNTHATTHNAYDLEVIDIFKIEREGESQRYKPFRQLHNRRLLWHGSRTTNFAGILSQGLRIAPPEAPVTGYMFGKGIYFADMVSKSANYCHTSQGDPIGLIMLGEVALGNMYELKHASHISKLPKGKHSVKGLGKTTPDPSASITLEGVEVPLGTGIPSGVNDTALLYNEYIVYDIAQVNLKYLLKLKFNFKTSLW

[5] = test system: Poly(ADP-ribose) polymerase-1; assay: in vivo; type: in vivo, mice; conditions: for PARP activity in tumours, % of control: 7 days
[6] = molecular target: T1, Poly(ADP-ribose) polymerase-1; type: in vivo, mice; conditions: 24 h after single dose 150 mg kg−1 p.o. or 50 mg kg−1 i.p.
[7] = test system: Poly(ADP-ribose) polymerase-1; type: in vivo, mice
Capan-1 xenografts [8] = assay: Efficacy study in mice bearing Capan-1 xenografts; type: in vivo
MX-1 xenografts [9] = assay: Efficacy study in mice bearing MX-1 xenografts; type: in vivo; conditions: MX-1 tumour-bearing mice
PARP [10] = molecular target: T2, PARP (Homo sapiens, UniProt P09874); conditions: patients, after five daily doses; ref Plummer et al, 2008; cited from earlier work
T2 sequence (P09874 whole entry): as the sequence (P09874 whole entry) above

Capan-1 xenografts [11] = conditions: ref Drew et al, 2011; cited from earlier work
MX-1 xenografts [12] = conditions: ref Shen et al, 2013, cited from earlier work
PARP [13] = molecular target: T2, PARP; assay: PARP activity in permeabilised or intact Capan-1 cells with carboxy metabolite; type: cell-based
[14] = pre-clinical studies; ref Calabrese et al, 2004; cited from earlier work
[15] = SW620 cells, 400 nM [14C]rucaparib
[16] = Capan-1 and MX-1 cells, 30-min pulse with 400 nM
[17] = 10 mg kg−1 i.p. daily × five weekly × six

Question: For `CNCc1ccc(-c2[nH]c3cc(F)cc4c3c2CCNC4=O)cc1` [rucaparib], which half-life [1] is on record?
Answer: 20 min

Question: What about the “rucaparib lost by efflux in the first 5–10 min” value (SW620 cells; SW620 cells after 30-min pulse with 400 nM) of the same compound?
Answer: up to 50%

Question: And the intracellular concentration (SW620 cells; SW620 cells exposed to 400 nM [14C]rucaparib, steady state)?
Answer: > 10 µM

Question: And the “time to steady-state intracellular level” value (SW620 cells; [15])?
Answer: ≤ 30 min

Question: What about the “Vmax of rucaparib uptake” value (SW620 cells; SW620 cells, 30 min exposure, mean and s.d. of three independent experiments) of the same compound?
Answer: 469±22 pmol per 10^6 cells per 10 min

Question: And the “uptake with sodium buffer replaced by potassium buffer” value (SW620 cells; SW620 cells, transport buffer)?
Answer: reduced uptake slightly

Question: And the “uptake with sodium replaced by choline” value (SW620 cells; SW620 cells, transport buffer)?
Answer: no effect

Question: And the “PARP activity 1 week after drug removal” value [2, 16]?
Answer: still below baseline

Question: What about the “persistence of PARP inhibition after pulse” value [2, 16] of the same compound?
Answer: 72 h

Question: And the remaining activity at 0.4 µM ([2]; SW-620, read-out: PARP activity, % of control)?
Answer: 35 ± 12%

Question: What about the inhibition at 0.4 µM ([2]; read-out: PARP inhibition, human cancer cell lines (SW620, Capan-1, MX-1), for at least 72 h after 30-min pulse of 400 nM) of the same compound?
Answer: ≥ 50%

Question: What about the “PARP activity below baseline 1 week after initial exposure” value ([2]; where measured, 30-min pulse) of the same compound?
Answer: ≥ 30%

Question: What about the dose linearity ([3]; mice) of the same compound?
Answer: apparent dose linearity

Question: And the “rucaparib in tumour at 3 days” value ([3]; oral rucaparib)?
Answer: still detectable in most mice

Question: What about the “time at which parent drug detectable in plasma” value ([3]; single dose 10 mg kg−1 i.p., all three mice per group) of the same compound?
Answer: 30 min

Question: And the “time up to which parent drug detectable in plasma” value ([3]; single dose 50–150 mg kg−1 p.o., all three mice per group)?
Answer: up to 4 h

Question: What about the “PARP activity in PBMCs, % of control” value ([4]; 24 h after single dose 10 mg kg−1 i.p.) of the same compound?
Answer: > 35%

Question: What about the inhibition at 10 mg/kg ([4]; CAPAN-1, mouse, ip, read-out: initial PARP inhibition in brain) of the same compound?
Answer: ~50%

Question: What about the “reduction in brain PARP activity” value ([4]; oral dosage, 4 h) of the same compound?
Answer: > 60%

Question: And the “brain PARP activity after recovery, % of baseline” value ([4]; oral dosage, after 4 h up to 7 days)?
Answer: 70–80%

Question: And the “PARP activity in PBMCs up to 6 h post-administration” value ([4]; single dose 10 mg kg−1 i.p.)?
Answer: profound suppression

Question: And the “PARP inhibition in Capan-1 tumours” value ([5]; 7 days following single dose 10 mg kg−1 i.p.)?
Answer: 70%

Question: What about the “PARP inhibition in Capan-1 tumours” value ([5]; 7 days following single dose 150 mg kg−1 p.o.) of the same compound?
Answer: 90%

Question: And the “PARP activity in tumours, % of control” value ([5]; single dose 50 mg kg−1 p.o.)?
Answer: ~10%

Question: What about the “PARP activity in tumours, % of control” value ([5]; single dose 150 mg kg−1 p.o.) of the same compound?
Answer: ~10%

Question: And the “PARP activity in tumours, % of baseline” value ([5]; after 48 h, 10 mg kg−1 i.p.)?
Answer: ~30%

Question: And the “PARP activity in tumours, % of baseline” value ([5]; between 30 min and 24 h, all doses and routes (10 mg kg−1 i.p.; 50, 100, 150 mg kg−1 p.o.))?
Answer: < 20%

Question: What about the “PARP inhibition in livers” value [6] of the same compound?
Answer: not in the livers; also recorded: recovered completely within 24 h

Question: What about the “PARP inhibition in MX-1 tumours” value ([7]; 24 h after single dose 50 mg kg−1 i.p.) of the same compound?
Answer: > 55%

Question: And the “PARP inhibition in MX-1 tumours” value ([7]; 24 h after single dose 150 mg kg−1 p.o.)?
Answer: > 80%

Question: And the “PARP inhibition in MX-1 tumours” value ([7]; 3 days after 150 mg kg−1)?
Answer: 87–92%

Question: And the “PARP inhibition in MX-1 tumours” value ([7]; 7 days after 150 mg kg−1)?
Answer: 44–74%

Question: What about the partial regressions (Capan-1 xenografts [8]; [17]) of the same compound?
Answer: two persistent partial regressions

Question: What about the “time to quadruple in volume (RTV4)” value (Capan-1 xenografts [8]; [17]) of the same compound?
Answer: not reached during the 50-day trial

Question: What about the Complete regressions (Capan-1 xenografts [8]; 10 mg kg−1 i.p., d × 5 w × 6) of the same compound?
Answer: 1/10

Question: And the “Mice remaining at day 40” value (Capan-1 xenografts [8]; 10 mg kg−1 i.p., d × 5 w × 6)?
Answer: 6

Question: And the Complete regressions (Capan-1 xenografts [8]; 10 mg kg−1 i.p., d × 5 w × 6, listed as Rucaparib)?
Answer: one complete tumour regression

Question: And the Complete regressions (Capan-1 xenografts [8]; 50 mg kg−1 p.o., d × 5 w × 6)?
Answer: 0/10

Question: What about the “Mice remaining at day 40” value (Capan-1 xenografts [8]; 50 mg kg−1 p.o., d × 5 w × 6) of the same compound?
Answer: 2

Question: What about the “effect on tumour growth” value (Capan-1 xenografts [8]; 150 mg kg−1 p.o. daily × five weekly × six) of the same compound?
Answer: equivalent effect on tumour growth to 10 mg kg^−1 i.p.

Question: And the “antitumour effect of once weekly schedule” value (Capan-1 xenografts [8]; 150 mg kg−1 p.o. once a week for 6 weeks, compared with other schedules)?
Answer: as effective as; also recorded: greatest antitumour effect

Question: What about the Complete regressions (Capan-1 xenografts [8]; 150 mg kg−1 p.o., 1 × w × 6) of the same compound?
Answer: three complete regressions and 3/10

Question: And the “Mice remaining at day 40” value (Capan-1 xenografts [8]; 150 mg kg−1 p.o., 1 × w × 6)?
Answer: 7

Question: What about the Complete regressions (Capan-1 xenografts [8]; 150 mg kg−1 p.o., 3 × w × 6) of the same compound?
Answer: 1/10

Question: And the “Mice remaining at day 40” value (Capan-1 xenografts [8]; 150 mg kg−1 p.o., 3 × w × 6)?
Answer: 5

Question: What about the Complete regressions (Capan-1 xenografts [8]; 150 mg kg−1 p.o., d × 5 w × 6) of the same compound?
Answer: 1/10

Question: And the “Mice remaining at day 40” value (Capan-1 xenografts [8]; 150 mg kg−1 p.o., d × 5 w × 6)?
Answer: 5

Question: And the Complete regressions (Capan-1 xenografts [8]; 150 mg kg−1 p.o., dx5 every 3w)?
Answer: 1/10

Question: And the “Mice remaining at day 40” value (Capan-1 xenografts [8]; 150 mg kg−1 p.o., dx5 every 3w)?
Answer: 5

Question: What about the weight loss (Capan-1 xenografts [8]; Capan-1 tumour-bearing mice, any of the schedules) of the same compound?
Answer: no significant weight loss

Question: What about the “effect on tumour growth” value (Capan-1 xenografts [8]; other dosing schedules incl. 150 mg kg−1 p.o. daily for five days every 3 weeks) of the same compound?
Answer: only marginal effect on tumour growth

Question: What about the “weight loss at nadir” value (MX-1 xenografts [9]) of the same compound?
Answer: ≤ 4%

Question: And the “PARP activity in peripheral blood mononuclear cells” value (PARP [10])?
Answer: still suppressed 3 days after the final of five daily doses

Question: And the “efficacy of daily for 5 days every week for 6 weeks vs once a day for 10 days” value (Capan-1 xenografts [11])?
Answer: more effective

Question: Which “efficacy against MX-1 xenografts” value (MX-1 xenografts [12]; 100 mg kg−1 daily for 28 days) does the source give for `O=C(c1cc(Cc2n[nH]c(=O)c3ccccc23)ccc1F)N1CCN(C(=O)C2CC2)CC1` [olaparib] here?
Answer: completely ineffective

Question: For `O=C(O)c1ccc(-c2[nH]c3cc(F)cc4c3c2CCNC4=O)cc1` [4-(8-fluoro-6-oxo-3,4,5,6-tetrahydro-1H-azepino[5,4,3-cd]indol-2-yl)benzoic acid], which “metabolite concentration relative to parent drug in plasma” value ([3]; after single dose of rucaparib) is on record?
Answer: higher concentrations than the parent drug in the plasma

Question: And the “metabolite concentration relative to parent drug in tumour” value ([3]; after single dose of rucaparib)?
Answer: lower in the tumour

Question: What about the “PARP inhibition after pre-incubation of intact cells” value (PARP [13]) of the same compound?
Answer: did not result in PARP inhibition

Question: For `OCCN(CCO)c1nc(N2CCCCC2)c2nc(N(CCO)CCO)nc(N3CCCCC3)c2n1` [dipyridamole], which “effect of transport inhibitor on rucaparib uptake” value (“effect of transport inhibitor” for short) (SW620 cells; [15]) is on record?
Answer: neither the nucleoside transport inhibitor, dipyridamole, nor the amino-acid transport inhibitor, BCH, inhibited accumulation

Question: With `C=C1[C@@H](C)[C@H]2[C@H](Cc3ccccc3)NC(=O)[C@]23OC(=O)/C=C/[C@H](O)CCC[C@@H](C)C/C=C/[C@H]3[C@@H]1O` [cytochalasin B] as the compound, how does the “effect of transport inhibitor” value (SW620 cells; [15]) read?
Answer: no effect on uptake

Question: Which “efficacy against MX-1 xenografts” value (MX-1 xenografts [12]; once or twice daily administration) does the source give for `Cn1ncnc1[C@H]1c2n[nH]c(=O)c3cc(F)cc(c23)N[C@@H]1c1ccc(F)cc1` [BMN 673] here?
Answer: regressions of MX-1 xenografts

Question: For `C[C@@H]1O[C@@H](O[C@H]2C[C@@H](O)[C@]3(CO)[C@H]4[C@H](O)C[C@]5(C)[C@@H](C6=CC(=O)OC6)CC[C@]5(O)[C@@H]4CC[C@]3(O)C2)[C@H](O)[C@H](O)[C@H]1O` [Ouabain], which “effect of transport inhibitor” value (SW620 cells; [15]) is on record?
Answer: only a very modest effect

Question: With `NC1(C(=O)O)CC2CCC1C2` (stereo not shown) [BCH] as the compound, how does the “effect of transport inhibitor” value (SW620 cells; [15]) read?
Answer: neither the nucleoside transport inhibitor, dipyridamole, nor the amino-acid transport inhibitor, BCH, inhibited accumulation

Question: With `CN(C)Cc1ccc(-c2nc3cccc4c3n2CCNC4=O)cc1` [AG14361] as the compound, how does the “tumour distribution and retention” value [14] read?
Answer: distributed well to the tumour and was retained in the tumour after clearance from the plasma
